Several values for one entry are separate records, joined by “and”; a condition that tells them apart may be missing. Identical values can stand only once.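 Results reflect a 48-hour exposure of cells in 96-well plates to compound at five concentrations. GI50 = concentration required for 50% inhibition of growth. TGI: total growth inhibition.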 A value given as a limit tells only on which side of the number the result lay.

Some test systems named below: A498 renal; K-562 leukemia; OVCAR-5 ovarian; RPMI-8226 leukemia; RXF 393 renal; SF-295 CNS; SK-MEL-5 melanoma; SNB-75 CNS; SR leukemia; SW-620 colon.
What all share (assay): growth of human tumour cells (NCI), 48 h

`CNc1cc2oc(=O)cc(C)c2cc1C`: the TGI with A498 renal, in the assay with K-562 leukemia, in the assay with OVCAR-5 ovarian, in the assay with RPMI-8226 leukemia, in the assay on RXF 393 renal and in the assay on SF-295 CNS was greater than 100 µM each time. For the same compound, the TGI in the assay on SK-MEL-5 melanoma, with SNB-75 CNS, with SR leukemia and in the assay on SW-620 colon was greater than 100 µM throughout.
For the compound `O=C(Nc1nc(-c2c[nH]c3ccccc23)cs1)c1n[nH]c(=O)c2ccccc12`, the GI50 is 22 µM in the assay with A498 renal; 1.27 µM in the assay on K-562 leukemia; 73 µM with OVCAR-5 ovarian; 0.957 µM in the assay on RPMI-8226 leukemia; 0.446 µM in the assay on RXF 393 renal; 1.55 µM with SF-295 CNS. For the same compound, the GI50 is 1.44 µM in the assay on SK-MEL-5 melanoma, 16.2 µM in the assay on SNB-75 CNS, 1.61 µM with SR leukemia and 1.91 µM with SW-620 colon. Besides, the TGI with A498 renal is greater than 100 µM; in the assay on K-562 leukemia, greater than 100 µM; with OVCAR-5 ovarian it was greater than 100 µM; in the assay on RPMI-8226 leukemia, 58.2 µM; in the assay on RXF 393 renal, 20.7 µM; with SF-295 CNS, 21.9 µM. For the same compound, the TGI with SK-MEL-5 melanoma was greater than 100 µM; in the assay with SNB-75 CNS, greater than 67.8 µM; in the assay on SW-620 colon, greater than 100 µM.
Turning to `CCCCNCCCNCCCNC(=O)c1csc(-c2csc(CCNC(=O)C(NC(=O)C(C)C(O)C(C)NC(=O)C(NC(=O)c3nc(C(CC(N)=O)NCC(N)C(N)=O)nc(N)c3C)C(OC3OC(CO)C(O)C(O)C3OC3OC(CO)C(O)C(OC(N)=O)C3O)c3cnc[nH]3)C(C)O)n2)n1` (configuration not stated), the GI50 is 1.25 µM in the assay with A498 renal; 19.6 µM with K-562 leukemia; 5.86 µM with OVCAR-5 ovarian; 19.7 µM with RPMI-8226 leukemia; 0.443 µM and 0.171 µM in the assay with RXF 393 renal; 3.14 µM in the assay on SK-MEL-5 melanoma. The results for the GI50 in the assay with SNB-75 CNS, with SR leukemia and in the assay with SW-620 colon were 0.0257 µM, 7.28 µM and 11 µM, respectively. Further, the TGI is 50 µM and 28.1 µM with A498 renal; 50 µM and > 100 µM with K-562 leukemia; 50 µM and > 44.5 µM in the assay with OVCAR-5 ovarian; greater than 100 µM in the assay with RPMI-8226 leukemia; 2.66 µM and 1.15 µM in the assay on RXF 393 renal; 1.76 µM in the assay with SF-295 CNS. The TGI with SK-MEL-5 melanoma is 50 µM and 11.6 µM; in the assay with SNB-75 CNS it was 0.716 µM and 3.37 µM; in the assay on SR leukemia, 50 µM and > 100 µM; in the assay with SW-620 colon it was 50 µM and > 100 µM.
Regarding `CNCCCNc1ccnc2cc(Cl)ccc12`, the GI50 with A498 renal is 12.4 µM; with K-562 leukemia, 15.2 µM; in the assay on OVCAR-5 ovarian it was 21.1 µM; in the assay with RPMI-8226 leukemia, 20 µM; in the assay on RXF 393 renal, 14.5 µM; with SF-295 CNS, 27.1 µM. The GI50 in the assay with SK-MEL-5 melanoma was 16.4 µM; in the assay with SNB-75 CNS, 16.4 µM; with SR leukemia, 22.5 µM; with SW-620 colon, 13.2 µM. The TGI with A498 renal is 40.3 µM; in the assay with K-562 leukemia, greater than 100 µM; with OVCAR-5 ovarian it was 72 µM; in the assay on RPMI-8226 leukemia, 55.7 µM; in the assay on RXF 393 renal, 65.4 µM; with SF-295 CNS it was greater than 100 µM. Also, the TGI with SK-MEL-5 melanoma is 31.6 µM; in the assay with SNB-75 CNS, 82 µM; in the assay with SR leukemia it was 70.8 µM; in the assay with SW-620 colon, 58.8 µM.
Regarding `CCOc1ccc(NC(=O)CC2SC(=Nc3ccc(C)cc3C)NC2=O)cc1` (configuration not stated), the TGI in the assay with A498 renal, in the assay with K-562 leukemia, in the assay with OVCAR-5 ovarian, in the assay with RPMI-8226 leukemia, in the assay on RXF 393 renal and in the assay with SF-295 CNS was greater than 100 µM in each case. For the same compound, the TGI with SK-MEL-5 melanoma, with SNB-75 CNS, with SR leukemia and in the assay with SW-620 colon was greater than 100 µM each time.
As for `Nc1c(C(=O)Nc2ccccn2)sc2nc3c(cc12)C(=O)CCC3`, the GI50 is 0.345 µM in the assay with A498 renal; 0.463 µM in the assay with K-562 leukemia; 9.53 µM in the assay on OVCAR-5 ovarian; 3.24 µM in the assay with RPMI-8226 leukemia; 1.11 µM with RXF 393 renal; 0.473 µM with SF-295 CNS. The GI50 with SK-MEL-5 melanoma is 0.444 µM; in the assay with SNB-75 CNS, 0.646 µM; in the assay with SR leukemia, 2.75 µM; with SW-620 colon it was 0.706 µM. Moreover, the TGI in the assay on A498 renal was greater than 100 µM; in the assay with K-562 leukemia it was greater than 100 µM; in the assay on OVCAR-5 ovarian it was greater than 100 µM; in the assay on RPMI-8226 leukemia, greater than 100 µM; in the assay on RXF 393 renal it was 8.88 µM; in the assay with SF-295 CNS, greater than 100 µM. The TGI is greater than 100 µM in the assay with SK-MEL-5 melanoma, 22.2 µM in the assay on SNB-75 CNS, greater than 100 µM in the assay on SR leukemia and greater than 100 µM with SW-620 colon.
Take `NC(=S)N/N=C/c1ncccc1O`: the GI50 in the assay on A498 renal is 3.74 µM; in the assay with K-562 leukemia, 2.92 µM; in the assay on OVCAR-5 ovarian, 5.21 µM; in the assay with RPMI-8226 leukemia it was 5.92 µM and 2.07 µM; in the assay with SF-295 CNS, 2.47 µM; with SK-MEL-5 melanoma, 2.04 µM and 1.26 µM. Also, the GI50 in the assay on SNB-75 CNS is 2.16 µM; in the assay with SR leukemia, 0.585 µM; in the assay with SW-620 colon, 3.3 µM. The TGI was 29.2 µM and 32.4 µM in the assay with A498 renal; greater than 1000 µM with K-562 leukemia; > 82.4 µM and 154 µM with OVCAR-5 ovarian; greater than 1000 µM in the assay with RPMI-8226 leukemia; 7.82 µM and 42.6 µM in the assay with RXF 393 renal; 27.1 µM and 3.94 µM with SF-295 CNS. Besides, the TGI with SK-MEL-5 melanoma was 35.5 µM and 67.2 µM; with SNB-75 CNS, > 51.9 µM and 60.6 µM; in the assay with SR leukemia, 28.8 µM and > 148 µM; with SW-620 colon, greater than 839 µM.
As to `COc1ccc(/C=C\c2cc(OC)c(OC)c(OC)c2)cc1OCC(=O)O`, the TGI was greater than 83 µM in the assay with A498 renal; greater than 100 µM in the assay with K-562 leukemia; greater than 100 µM in the assay on OVCAR-5 ovarian; greater than 100 µM in the assay on RPMI-8226 leukemia; 39.2 µM with RXF 393 renal; 35.8 µM with SF-295 CNS. Further, the TGI was 50.1 µM in the assay on SK-MEL-5 melanoma, greater than 58.7 µM in the assay with SNB-75 CNS, greater than 100 µM with SR leukemia and greater than 100 µM in the assay with SW-620 colon.
`O=C(Nc1ncc(Cc2cccc(C(F)(F)F)c2)s1)c1ccc2c(c1)OCCO2`: the GI50 in the assay with A498 renal is 0.0484 µM; in the assay on K-562 leukemia it was 0.159 µM; in the assay with OVCAR-5 ovarian it was 0.617 µM; with RPMI-8226 leukemia, 0.483 µM; with RXF 393 renal, 0.232 µM; with SF-295 CNS it was 0.244 µM. The GI50 with SK-MEL-5 melanoma is 0.281 µM; in the assay with SNB-75 CNS, 0.185 µM; in the assay with SR leukemia, 0.21 µM; in the assay on SW-620 colon, 0.352 µM. The TGI in the assay on A498 renal was 0.442 µM; in the assay with K-562 leukemia, greater than 100 µM; in the assay on OVCAR-5 ovarian it was greater than 100 µM; in the assay with RPMI-8226 leukemia, greater than 100 µM; with RXF 393 renal, 0.783 µM; with SF-295 CNS, 1.84 µM. Further, the TGI was 2.36 µM with SK-MEL-5 melanoma, 7.17 µM in the assay on SNB-75 CNS, greater than 100 µM with SR leukemia and greater than 100 µM with SW-620 colon.

Source of the values: PubChem BioAssay (NCI).
